Literature values in patent publication US20140328890A1, “Silver Iodate Compounds Having Antimicrobial Properties” (priority 2010, published 2014).

Settings: published literature

[Ag+].[Ag+].[Ag+].[Ag+].[Ag+].[O-][I+]([O-])([O-])([O-])([O-])[O-] [Ag5IO6, pentasilver hexaoxoiodate]
sensitivity to light and air: insensitive to light and air
